Measured values: patent US4436751A, “Nitrobenzyl monates antibacterial compounds” (Beecham Group Limited, priority 1980, dated 1984)
In brackets after ≈: the same amount, converted by molar mass. Read-outs that look alike come from different tables or passages of the source.

Experiments:
Type in all cases: cell-based
Strep. 641848-C = test: Human bacteria MIC, nutrient agar with chocolated horse blood (Table 3)
Experimental: (§1) The values were determined by serial dilutions in nutrient agar with 5% chocolated horse blood after incubations for 18 hours at 37° C.

[1] = system: Haemophilus influenzae Wy21; test: as above; details: nutrient agar 5% chocolated horse blood, 18 hours 37° C.
Experimental: as §1

Strep. pneumoniae CN33 = test: as above; details: Streptococcus pneumoniae
Experimental: as §1

M1 -suiphneumoniae = test: Anti-mycoplasmal activity relative to O-nitrobenzyl monate A
mycoplasma organisms = test: Anti-mycoplasmal activity (summary); details: in words
Experimental: The values were determines in Friis broth solidified with 0.9% agarose. The inoculum was 10^3 to 10^5 C.F.U. and the MIC's were recorded after 6 days incubation at 37° C.

bacteria = test: Antibacterial activity (summary); details: in words
Experimental: The values were determined using a two fold serial dilutions in Diagnostic Sensitivity Test Agar with an inoculum of 10^4 organisms and incubation for 18 hours at 37° C.
as §1

[2] = system: Treponema hyodysenteriae P23; test: MIC against Treponema hyodysenteriae, horse blood agar (Table 4); details: Brachyspira hyodysenteriae, 48 h; strain P23; 2 days 37° C. anaerobic; read-out: Minimum Inhibitory Concentration (MIC), inhibition of β-haemolysis
Experimental: (§2) The value were obtained by the following method: The compound was incorporated in horse blood agar, inoculated (multi-point)with 0.001 ml of a 3 day growth of the test organism from base of a blood slope (+1 ml foetal calf serum) and incubated at 37° C. for 2 days under anaerobic conditions. The MIC was taken as the lowest concentration to inhibit β-haemolysis.

[3] = system: Treponema hyodysenteriae S77/10; test: as above; details: Brachyspira hyodysenteriae, 48 h; strain S77/10; 2 days 37° C. anaerobic; read-out: Minimum Inhibitory Concentration (MIC), inhibition of β-haemolysis
Experimental: as §2

[4] = system: Treponema hyodysenteriae Navis; test: as above; details: Brachyspira hyodysenteriae, 48 h; strain Navis; 2 days 37° C. anaerobic; read-out: Minimum Inhibitory Concentration (MIC), inhibition of β-haemolysis
Experimental: as §2

[5] = system: Treponema hyodysenteriae S77/2; test: as above; details: Brachyspira hyodysenteriae, 48 h; strain S77/2; 2 days 37° C. anaerobic; read-out: Minimum Inhibitory Concentration (MIC), inhibition of β-haemolysis
Experimental: as §2

[6] = system: Treponema hyodysenteriae B10; test: as above; details: Brachyspira hyodysenteriae, 48 h; strain B10; 2 days 37° C. anaerobic; read-out: Minimum Inhibitory Concentration (MIC), inhibition of β-haemolysis
Experimental: as §2

[7] = Strep. 641848-C, nutrient agar 5% chocolated horse blood, 18 hours 37° C., read-out: MIC
[8] = Strep. pneumoniae CN33, nutrient agar 5% chocolated horse blood, 18 hours 37° C., read-out: MIC

SMILES | MIC (Strep. 641848-C; [7]) [mg/L] | MIC [1] [mg/L] | MIC (Strep. pneumoniae CN33; CN33, 18 h) [mg/L] | MIC (Strep. 641848-C; 18 h) [mg/L] | further results
C/C(=C\C(=O)OCc1ccc([N+](=O)[O-])cc1Cl)CC1OCC(CC2OC2C(C)C(C)O)C(O)C1O (centres unmarked) [Example 11, 2-chloro-4-nitrobenzyl monate A] | 1 (≈ 1.95 µM) |  |  |  | 
C/C(=C\C(=O)OCc1ccc([N+](=O)[O-])cc1[N+](=O)[O-])CC1OCC(CC2OC2C(C)C(C)O)C(O)C1O (centres unmarked) [Example 10, 2,4-dinitrobenzyl monate A] |  | 0.5 (≈ 0.953 µM) | 2.5 (≈ 4.77 µM) | 2.5 (≈ 4.77 µM) | 
C/C(=C\C(=O)OCc1cccc([N+](=O)[O-])c1)CC1OCC(CC2OC2C(C)C(C)O)C(O)C1O (centres unmarked) [Example 2, m-nitrobenzyl monate A] |  |  |  |  | times more active than O-nitrobenzyl monate A (M1 -suiphneumoniae): approximately 20 times; anti-mycoplasmal activity (mycoplasma organisms): outstanding anti-mycoplasmal activity
C/C(=C\C(=O)OCc1ccc([N+](=O)[O-])c([N+](=O)[O-])c1)CC1OCC(CC2OC2C(C)C(C)O)C(O)C1O (centres unmarked) [Example 9, 3,4-dinitrobenzyl monate A] |  | 0.25 (≈ 0.477 µM) | 2.5 (≈ 4.77 µM) | 2.5 (≈ 4.77 µM) | 
C/C(=C\C(=O)OCc1cc([N+](=O)[O-])cc([N+](=O)[O-])c1C)CC1OCC(CC2OC2C(C)C(C)O)C(O)C1O (centres unmarked) [Example 7, 3,5-dinitro-2-methylbenzyl monate A] |  | 1 (≈ 1.86 µM) | 0.5 (≈ 0.928 µM) | 1 (≈ 1.86 µM) | 
C/C(=C\C(=O)OCc1cccc([N+](=O)[O-])c1C)CC1OCC(CC2OC2C(C)C(C)O)C(O)C1O (centres unmarked) [Example 8, 2-methyl-3-nitrobenzyl monate A] | 0.5 (≈ 1.01 µM) |  |  |  | MIC (Strep. pneumoniae CN33; [8]): 0.5 mg/L (≈ 1.01 µM)
C/C(=C\C(=O)OC(C)c1cccc([N+](=O)[O-])c1)CC1OCC(CC2OC2C(C)C(C)O)C(O)C1O (centres unmarked) [Example 3, 1-(m-nitrophenyl)ethyl monate A] | 2.5 (≈ 5.07 µM) |  |  |  | 
C/C(=C\C(=O)OCc1ccc([N+](=O)[O-])cc1)CC1OCC(CC2OC2C(C)C(C)O)C(O)C1O (centres unmarked) [Example 1, p-nitrobenzyl monate A] |  |  |  | 0.25 (≈ 0.521 µM) | MIC (Strep. pneumoniae CN33; [8]): 0.1 mg/L (≈ 0.209 µM); antibacterial activity as compared to o-nitrobenzyl monate A (bacteria): outstanding antibacterial activity; MIC [2]: 2.5 mg/L (≈ 5.21 µM); MIC [3]: 2.5 mg/L (≈ 5.21 µM); MIC [4]: 2.5 mg/L (≈ 5.21 µM); MIC [5]: 2.5 mg/L (≈ 5.21 µM); MIC [6]: 2.5 mg/L (≈ 5.21 µM)
C/C(=C\C(=O)OC(C)c1ccc([N+](=O)[O-])cc1)CC1OCC(CC2OC2C(C)C(C)O)C(O)C1O (centres unmarked) [Example 4, 1-(p-nitrophenyl)ethyl monate A] | 1 (≈ 2.03 µM) |  |  |  | MIC (Strep. pneumoniae CN33; [8]): 1 mg/L (≈ 2.03 µM)
C/C(=C\C(=O)OCc1cccc([N+](=O)[O-])c1)CC1OCC(C/C=C/C(C)C(C)O)C(O)C1O (centres unmarked) [Example 5, m-nitrobenzyl monate C] |  |  |  | 5 (≈ 10.8 µM) | 
C/C(=C\C(=O)OCc1cc([N+](=O)[O-])cc([N+](=O)[O-])c1)CC1OCC(CC2OC2C(C)C(C)O)C(O)C1O (centres unmarked) [Example 6, 3,5-dinitrobenzyl monate A] |  | 0.5 (≈ 0.953 µM) | 0.25 (≈ 0.477 µM) | 0.5 (≈ 0.953 µM) | 
